Laboratory results: patent US8067424B2, “Selective inhibitors for cyclin-dependent kinases” (Emory University, priority 2007, dated 2011)
Like-named read-outs stand apart in the source and are kept apart here.

How the values were obtained:
MCF-7 cell line = assay: cells; type: cell-based; conditions: Homo sapiens; for IC (total growth inhibition): read-out: TGI
PIM3 = PIM3 (Homo sapiens, UniProt Q86V86); assay: Kinase screen: PIM3 assay; type: biochemical
Procedure: (§1) Generally, the same procedure was used for all assays. Since the total assay volume was 25.5 microliters, 0.5 microliters of inhibitors at 51× assay concentration were added to the plates before any other addition.
(§2) The basic procedure was to add 0.5 microliters inhibitor/control in DMSO to plate. Fifteen microliters of enzyme/substrate/buffer mix were added and incubated for 5 min. Ten microliters MgATP at the relevant concentration were added and incubated for 30 min. The assay was stopped by adding 5 microliters of 3% orthophosphoric acid. The assay was transferred to a p81 filter plate and read in a scintillation counter of 30 sec/well. Note that this assay procedure was not followed for MKK1, which instead involved a two-step assay, and PKC alpha, which required the addition of lipid vesicles.
(§3) PIM3 assay: PIM3 (5-20 mU diluted in 50 mM Tris pH 7.5, 0.1 mM EGTA, 0.1% b-mercaptoethanol, 1 mg/ml BSA) was assayed against a substrate peptide ([…]) (SEQ ID NO: 23) in a final volume of 25.5 μl containing 50 mM Tris pH 7.5, 0.05% b-mercaptoethanol, 300 μM substrate peptide, 10 mM magnesium acetate and 0.02 mM [33P-g-ATP] (50-1000 cpm/pmole) and incubated for 30 min at room temperature. Assays were stopped by addition of 5 μl of 0.5 M (3%) orthophosphoric acid and then harvested onto P81 Unifilter plates with a wash buffer of 50 mM orthophosphoric acid.

PAK5 = PAK5 (Homo sapiens, UniProt Q9P286); assay: Kinase screen: PAK5 (PAK7) assay; type: biochemical
Chain of PAK5 (Q9P286 whole entry): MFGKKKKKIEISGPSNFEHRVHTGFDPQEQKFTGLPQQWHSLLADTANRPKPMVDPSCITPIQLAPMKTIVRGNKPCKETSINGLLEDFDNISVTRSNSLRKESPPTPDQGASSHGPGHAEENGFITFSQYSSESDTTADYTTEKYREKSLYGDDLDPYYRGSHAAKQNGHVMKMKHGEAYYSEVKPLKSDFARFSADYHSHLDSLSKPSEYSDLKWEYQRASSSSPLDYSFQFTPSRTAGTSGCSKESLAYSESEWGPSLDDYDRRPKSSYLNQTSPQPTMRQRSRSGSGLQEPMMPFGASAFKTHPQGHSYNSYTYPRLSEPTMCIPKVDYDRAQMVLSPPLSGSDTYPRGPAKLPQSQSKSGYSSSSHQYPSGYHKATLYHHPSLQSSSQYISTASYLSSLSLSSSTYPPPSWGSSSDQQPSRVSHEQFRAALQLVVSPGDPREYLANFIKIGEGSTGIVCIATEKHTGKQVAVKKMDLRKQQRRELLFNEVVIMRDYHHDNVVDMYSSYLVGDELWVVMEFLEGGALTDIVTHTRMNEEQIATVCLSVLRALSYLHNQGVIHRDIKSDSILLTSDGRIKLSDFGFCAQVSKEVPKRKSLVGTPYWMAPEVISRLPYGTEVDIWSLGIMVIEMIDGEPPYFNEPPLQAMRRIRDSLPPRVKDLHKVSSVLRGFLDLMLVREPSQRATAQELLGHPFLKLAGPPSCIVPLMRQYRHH
Procedure: as §1, §2
as §3, with “PAK5 (PAK7)” for “PIM3”, “PAK5 (PAK7)(5-20” for “PIM3 (5-20”, “30)” for “23)”

MAPKAP-K2 = MAPKAP-K2 (Homo sapiens, UniProt P49137); assay: Kinase screen: MAPKAP-K2 assay; type: biochemical
Chain of MAPKAP-K2 (P49137 whole entry, species assumed): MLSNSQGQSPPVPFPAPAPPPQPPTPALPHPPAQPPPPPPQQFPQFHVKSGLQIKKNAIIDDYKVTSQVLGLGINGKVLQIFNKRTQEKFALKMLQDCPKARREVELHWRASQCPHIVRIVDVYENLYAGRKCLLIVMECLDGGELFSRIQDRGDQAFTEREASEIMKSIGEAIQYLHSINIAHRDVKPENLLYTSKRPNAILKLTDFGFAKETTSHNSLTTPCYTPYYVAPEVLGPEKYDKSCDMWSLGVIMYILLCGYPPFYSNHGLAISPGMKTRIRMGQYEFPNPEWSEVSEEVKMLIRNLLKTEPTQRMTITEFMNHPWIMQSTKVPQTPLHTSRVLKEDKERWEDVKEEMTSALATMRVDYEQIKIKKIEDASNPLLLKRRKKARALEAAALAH
Procedure: as §1, §2
MAPKAP-K2 assay: MAPKAP-K2 (5-20 mU diluted in 20 mM MOPS pH 7.5, 1 mM EDTA, 0.01% Brij35, 5% glycerol, 0.1% b-mercaptoethanol, 1 mg/ml BSA) was assayed against […] (SEQ ID NO: 3) in a final volume of […] containing 50 mM Na-b-glycerophosphate pH 7.5, 0.5 mM EDTA, 30 μM substrate peptide, 10 mM magnesium acetate and 0.02 mM [33P-g-ATP] (50-1000 cpm/pmole) and incubated for 30 min at room temperature. Assays were stopped by addition of 5 μl of 0.5 M (3%) orthophosphoric acid and then harvested onto P81 Unifilter plates with a wash buffer of 50 mM orthophosphoric acid.

CK1 = CK1 (Homo sapiens, UniProt P48730); assay: Kinase screen: CK1 assay; type: biochemical
Chain of CK1 (P48730 whole entry): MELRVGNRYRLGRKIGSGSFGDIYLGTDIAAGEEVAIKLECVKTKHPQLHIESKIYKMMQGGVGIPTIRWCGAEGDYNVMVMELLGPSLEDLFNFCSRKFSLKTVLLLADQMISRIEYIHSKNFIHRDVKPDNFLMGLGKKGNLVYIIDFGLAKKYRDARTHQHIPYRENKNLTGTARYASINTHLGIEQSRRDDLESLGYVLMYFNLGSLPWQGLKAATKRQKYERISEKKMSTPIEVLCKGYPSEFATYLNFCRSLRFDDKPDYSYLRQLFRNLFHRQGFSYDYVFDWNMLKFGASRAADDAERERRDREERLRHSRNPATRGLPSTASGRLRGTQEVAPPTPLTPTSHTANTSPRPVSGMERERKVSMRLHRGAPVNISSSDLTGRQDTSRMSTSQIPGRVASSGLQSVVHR
Procedure: as §2, with “Generally, the same procedure was used for all assays. […] The basic” for “The basic”, “30 min. […] The assay” for “30 min. The assay was stopped by adding 5 microliters of 3% orthophosphoric acid. The assay”, “lipid vesicles. CK1 assay: […]” for “lipid vesicles.”

MKK1 = MKK1 (Homo sapiens, UniProt Q02750); assay: Kinase screen: MKK1 assay; type: biochemical
Chain of MKK1 (Q02750 whole entry, species assumed): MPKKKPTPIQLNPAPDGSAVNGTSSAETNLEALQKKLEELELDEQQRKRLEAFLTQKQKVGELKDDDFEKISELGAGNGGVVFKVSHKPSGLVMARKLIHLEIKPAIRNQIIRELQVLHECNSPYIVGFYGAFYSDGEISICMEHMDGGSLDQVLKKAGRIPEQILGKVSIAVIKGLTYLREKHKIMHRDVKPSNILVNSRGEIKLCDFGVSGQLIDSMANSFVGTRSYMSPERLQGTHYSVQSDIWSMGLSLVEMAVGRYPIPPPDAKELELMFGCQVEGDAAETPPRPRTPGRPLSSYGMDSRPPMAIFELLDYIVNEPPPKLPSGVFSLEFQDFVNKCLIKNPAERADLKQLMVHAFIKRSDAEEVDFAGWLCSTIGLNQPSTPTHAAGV
Procedure: as §1, §2
After incubating at room temperature for 30 min, 5 μl from the first reaction was pipetted into 20 μl of the second reaction mix containing (final concentration) 25 mM Tris pH 7.5, 0.1 mM EGTA, 0.1 mM Na3VO4, 0.66 mg/ml myelin basic protein (MBP), 10 mM magnesium acetate and 0.05 mM [33P-g-ATP] (500-1000 cpm/pmole) and incubated for 30 min at room temperature. Assays were stopped by addition of 5 μl of 0.5 M (3%) orthophosphoric acid and then harvested onto P81 Unifilter plates with a wash buffer of 50 mM orthophosphoric acid.

[1] = MCF7, 24 h, MCF-7, SRB assay, 24 hours
[2] = MCF7, MCF-7, SRB assay, 24 hours, mean of three experiments, read-out: IC50
[3] = 10 micromolar compound, read-out: mean activity remaining (as a percentage of the original activity), PIM3
[4] = 10 micromolar compound, read-out: mean activity remaining (as a percentage of the original activity), PAK5
[5] = 10 micromolar compound, read-out: mean activity remaining (as a percentage of the original activity), MAPKAP-K2
[6] = 0.5 h, 10 micromolar compound, read-out: mean activity remaining (as a percentage of the original activity), CK 1
[7] = 10 micromolar compound, read-out: mean activity remaining (as a percentage of the original activity), MKK1

Structure (SMILES) | IC (total growth inhibition) (MCF-7 cell line; [1]) [µM] | IC50 (MCF-7 cell line; [2]) [µM] | remaining activity at 10 µM (PIM3; [3]) [%] | remaining activity at 10 µM (PAK5; [4]) [%] | remaining activity at 10 µM (MAPKAP-K2; [5]) [%] | remaining activity at 10 µM (CK1; [6]) [%] | remaining activity at 10 µM (MKK1; [7]) [%] | also measured
CC[C@H](CO)Nc1cc(NCc2ccccc2)n2ncc(C(C)C)c2n1 [ICEC0067] | 13 | > 100 | 96 | 89 | 110 | 16 | 44 | 
CC(C)c1cnn2c(NCc3ccccc3F)cc(NCCCCCN)nc12 [ICEC-0232] |  |  |  |  |  |  |  | mean activity remaining (as a percentage of the original activity), PIM3 (PIM3; 10 micromolar compound): 76%; mean activity remaining (as a percentage of the original activity), PAK5 (PAK5; 10 micromolar compound): 81%; mean activity remaining (as a percentage of the original activity), MAPKAP-K2 (MAPKAP-K2; 10 micromolar compound): 88%; mean activity remaining (as a percentage of the original activity), CK 1 (CK1; 10 micromolar compound): 9%; mean activity remaining (as a percentage of the original activity), MKK1 (MKK1; 10 micromolar compound): 83%
CC(C)c1cnn2c(NCc3ccccc3)cc(NCCCCCCCN)nc12 [BS-181] |  |  |  |  |  |  |  | remaining activity at 10 µM (PIM3; PIM3, 10 μM, read-out: Mean Remaining Enzyme Activity (%)): 78%; remaining activity at 10 µM (PAK5; PAK5, 10 μM, read-out: Mean Remaining Enzyme Activity (%)): 80%; remaining activity at 10 µM (MAPKAP-K2; MAPKAP-K2, 10 μM, read-out: Mean Remaining Enzyme Activity (%)): 88%; remaining activity at 10 µM (CK1; CK1, 10 μM, read-out: Mean Remaining Enzyme Activity (%)): 29%; remaining activity at 10 µM (MKK1; MKK1, 10 μM, read-out: Mean Remaining Enzyme Activity (%)): 96%
CC(C)c1cnn2c(NCc3ccccc3)cc(N[C@@H](CO)[C@H](O)CO)nc12 [ICEC0318, (3S)-3-(7-(Benzylamino)-3-isopropylpyrazolo[1,5-a]pyrimidin-5-ylamino)butane-1,2,4-triol] | < 2 |  | 101 | 65 | 111 |  | 65 | IC50 (MCF-7 cell line; MCF7, 24 h): < 2 µM; remaining activity at 10 µM (CK1; 0.5 h, read-out: mean activity remaining (as a percentage of the original activity), CK 1): 19%
C=C[C@H](CO)Nc1cc(NCc2ccccc2)n2ncc(C(C)C)c2n1 [ICEC0065] | 12 | > 100 | 100 | 81 | 111 | 19 | 107 | LC50 (concentration causing 50% net cell kill) (MCF-7 cell line; [1]): 8.5 µM
